Reference: paper PMC12495443, “Developing inhibitors of the guanosine triphosphate hydrolysis accelerating activity of Regulator of G protein Signaling-14 [drawing 1]” (The Journal of Biological Chemistry, 2025)
Where two headings read alike, the source gives them in different places.

Tests used:
[1] = target: T1, human RGS14 RGS-box (wild-type) (Homo sapiens, UniProt O43566); assay: Transcreener GDP RGScreen fluorescence polarization assay of RGS14 RGS-box GAP activity on Gαi1(DM); type: biochemical; details: for Ratio (RGS14 pIC50 / RGS12 pIC50): values > 1.0 reflect RGS14 selectivity
T1 construct: human RGS14 RGS-box (aa 46–195 of UniProt O43566); host or cells: E. coli
T1 sequence (O43566 46-195): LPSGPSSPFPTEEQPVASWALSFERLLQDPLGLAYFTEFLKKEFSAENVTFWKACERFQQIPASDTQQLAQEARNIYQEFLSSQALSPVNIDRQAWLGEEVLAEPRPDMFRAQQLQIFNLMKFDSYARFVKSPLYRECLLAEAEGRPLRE
Excerpt: (§1) We previously described work with BellBrook Labs creating the Transcreener GDP RGScreen fluorescence polarization assay of steady-state GTP hydrolysis, leveraging a double point-mutant in the Gα enzyme to make GTP hydrolysis, rather than GDP (product) release, the rate-limiting step for multiple rounds of GTP conversion ([57], [59]). […] Titrating inputs of the double point-mutant (“DM”) Gαi1 and RGS-box recombinant proteins (Fig. S2, B and C) established a robust, medium-throughput assay for evaluating potential RGS14 and RGS12 inhibitors, with “assay quality” Z′ scores ([60]) above 0.76 for each target (Fig. S2D).
(§2) Reagents and protocols for the fluorescence anisotropy-based Transcreener GDP RGScreen assay using a rate-altered, double point-mutant, recombinant Gαi1 protein have been extensively described previously ([43], [44]); reactions were always performed so that total GTP converted over the time course was consistently less than 10% of reaction maximum input. Specific methods for its application in assessing RGS14 and RGS12 GAP activity are summarized as follows. Open-reading frames (ORFs) encoding wild-type versions of the human RGS14 RGS-box (aa 46–195 of UniProt O43566) and human RGS12 RGS-box (aa 695–843 of UniProt O14924) were each sub-cloned in-frame with an N-terminal hexahistidine (His6) expression tag in the plasmid pET30a, expressed in E. coli cultures, and then purified by nickel-nitriloacetate (Ni-NTA) and size-exclusion (Superdex 200) column chromatographies by GenScript using previously described methods ([35]). These recombinant His6-tag fusion proteins were stored at −80 °C in storage buffer (150 mM NaCl, 50 mM Tris-HCl pH 8.0, 10% glycerol) before thawing and use. Cysteine-less versions were similarly produced by ORF site-directed mutagenesis: for RGS14, codons for cysteine residues 47 and 130 (numbered as in PDB id 2JNU) were replaced with serine codons; for RGS12, codons for cysteines 4, 51, 78, and 134 (numbered in relation to PDB id 2EBZ) were replaced with serine codons. Use of Transcreener GDP-detection reagents to assess compound inhibition of Naegleria fowleri Gα7 protein GTPase activity ([83]) has previously been described ([84]).

[2] = target: T2, human RGS12 RGS-box (wild-type) (Homo sapiens, UniProt O14924); assay: Transcreener GDP RGScreen fluorescence polarization assay of RGS12 RGS-box GAP activity on Gαi1(DM); type: biochemical; details: for IC50 / RGS12 pIC50: wild-type RGS12 RGS-box GAP activity, Gαi1(DM); for IC50: read-out: RGS12 pIC50 (converted)
T2 construct: human RGS12 RGS-box (aa 695–843 of UniProt O14924); host or cells: E. coli
T2 sequence (O14924 695-843): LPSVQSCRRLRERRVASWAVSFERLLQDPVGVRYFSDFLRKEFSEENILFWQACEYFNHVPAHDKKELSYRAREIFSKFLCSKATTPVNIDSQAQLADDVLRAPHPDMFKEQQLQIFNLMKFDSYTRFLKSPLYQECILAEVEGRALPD
Excerpt: as §1, §2

[3] = wild-type RGS14 RGS-box GAP activity, Gαi1(DM), Transcreener GDP RGScreen, read-out: RGS14 pIC50 (converted)
[4] = wild-type RGS14 RGS-box GAP activity, Gαi1(DM), Transcreener GDP RGScreen

SMILES | Ratio (RGS14 pIC50 / RGS12 pIC50) [1] | IC50 [1, 3] [µM] | IC50 [2] [µM] | other results
FC(F)Oc1ccc(C2=Nn3c(COc4ccccc4)nnc3SC2)cc1 [Z56840012] | 0.90 | 36.3 | 11.5 | –
COC(=O)C1Sc2nnc(COc3ccc(OC)cc3)n2N=C1c1cccc(N2CCCC2=O)c1 (stereo not shown) [Z7976707565] | 1.14 | 27.5 | 100 | –
O=C(O)CC1Sc2nnc(Cc3ccc(Br)cc3)n2N=C1c1ccc(Cl)cc1 (stereo not shown) [Z90276771] | 0.91 | – | – | RGS14 pIC50 [1, 4]: 4.53; RGS12 pIC50 [2]: 4.96
CC(C)c1nnc2n1N=C(c1cc3ccccc3o1)CS2 [Z55627782] | 0.82 | 191 | 27.5 | –
Fc1ccccc1OCc1nnc2n1N=C(c1ccc(Cl)cc1)CS2 [Z55660438] | 0.77 | 234 | 20.4 | –
CCOc1ccccc1-c1nnc2n1N=C(c1ccc(NC(=O)C(C)C)cc1)[C@@H](C)S2 [Z90278674] | 0.92 | 102 | 44.7 | –
CC(Sc1n[nH]c2nc3ccccc3n12)C(=O)c1c(F)cc(F)cc1F (stereo not shown) [Z1098346193, 2-(2,4,5,7-tetraaza-tricyclo[6.4.0.0²,⁶]dodeca-1(12),3,5,8,10-pentaen-3-ylsulfanyl)-1-(2,4,6-trifluorophenyl)propan-1-one] | – | ~200 | 63.1 | –
COc1ccc(OCc2nnc3n2N=C(c2ccc(C)cc2)[C@@H](C)S3)cc1 [Z55660052] | 0.86 | 20.4 | 3.63 | –
C[C@H]1Sc2nnc(Cc3ccc(Br)cc3)n2N=C1c1ccc(NS(C)(=O)=O)cc1 [Z90276813] | 0.85 | 72.4 | 13.5 | –
CC(C)(C)c1ccc(C2=Nn3c(nnc3-c3ccco3)SC2)cc1 [Z55660110] | – | 56.2 | 53.7 | –
COC(=O)C1Sc2nnc(COc3ccc(F)cc3)n2N=C1c1cc2ccccc2o1 (stereo not shown) [Z8201263931] | 0.91 | 100 | 40.7 | –
COc1ccc(OCc2nnc3n2N=C(c2cccc(N4CCCC4=O)c2)CS3)cc1 [Z667824974] | 0.87 | 646 | 224 | –
c1ccc2c(c1)OC[C@@H](c1nnc3n1N=C(c1ccc4c(c1)OCCO4)CS3)O2 [Z55660304] | 0.90 | 28.8 | 8.71 | –
O=c1[nH]c(-c2ccc(C(F)(F)F)cc2)nn1-c1cc(Cl)ccc1O [BMS-192364, reference compound] | – | – | – | inhibition of RGS14 RGS-box GAP activity (in words) ([1]; Transcreener GDP RGScreen): inactive; inhibition of RGS12 RGS-box GAP activity (in words) [2]: inactive
O=C(O)CC1Sc2nnc(C3CCCO3)n2N=C1c1ccc(Cl)cc1 (stereo not shown) [Z90278051] | 1.07 | 56.2 | 107 | –
Cc1ccc(C2=Nn3c(COc4ccc(Cl)cc4)nnc3SC2)c(C)c1 [Z55660524] | 0.82 | 170 | 26.9 | –
C1CC[C@H]2Sc3nnc([C@H]4CCCO4)n3N=C2C1 [Z90278035] | 0.93 | 61.7 | 30.2 | –
O=C(O)C[C@@H]1Sc2nnc(-c3ccco3)n2N=C1c1ccc(F)cc1 [Z90276391] | 0.96 | 93.3 | 61.7 | –
CCN(CC)S(=O)(=O)c1cccc(-c2nnc3n2N=C(c2ccc(C)cc2)C(CC(=O)O)S3)c1 (stereo not shown) [Z90274338] | 1.14 | 93.3 | 288 | –
COc1ccc(OCc2nnc3n2N=C(c2cc(C)n(-c4nccs4)c2C)CS3)cc1 [Z667824954] | 0.87 | 219 | 64.6 | –
CCCc1ccc(C2=Nn3c(COc4ccccc4F)nnc3SC2)cc1 [Z55660462] | 0.96 | 16.6 | 10.5 | –

SMILES | Ratio (RGS14 pIC50 / RGS12 pIC50) [1] | IC50 [1, 3] [µM] | IC50 [2] [µM] | other results
COc1cccc(OCc2nnc3n2N=C(c2ccccc2)[C@H](CC(=O)O)S3)c1 [Z90278437] | 1.00 | 170 | 174 | –
COc1ccc(Cc2nnc3n2N=C(c2ccccc2)C(C)S3)cc1OC (stereo not shown) [Z55660788] | 0.90 | – | – | RGS14 pIC50 [1, 4]: 4.03; RGS12 pIC50 [2]: 4.50
CC1Sc2nnc(Cc3ccc(Br)cc3)n2N=C1c1ccc(Cl)cc1 (stereo not shown) [Z55660592] | 0.93 | 21.4 | 10 | –
Cc1ccc(C2=Nn3c(nnc3C3CC3)SC2CC(=O)O)cc1 (stereo not shown) [Z90274594] | 0.85 | 275 | 66.1 | –
O=C(O)C[C@@H]1Sc2nnc(COc3ccc(Cl)cc3)n2N=C1c1ccccc1 [Z90276197, 2-{3-[(4-chlorophenoxy)methyl]-6-phenyl-5H-[1,2,4]triazolo[3,4-b][1,3,4]thiadiazin-7-yl}acetic acid] | 0.94 | – | 42.7 | IC50 ([1]; wild-type RGS14 RGS-box, Transcreener GDP RGScreen, read-out: IC50 against RGS14 RGS-box GAP activity): 81 µM
COc1ccc(OCc2nnc3n2N=C(c2ccc(NC(C)=O)cc2)CS3)cc1 [Z55660046] | – | > 1000 | 155 | –
Cc1ccc(C2=Nn3c(COc4ccccc4)nnc3SC2)c(C)c1 [Z55659515] | – | 4.07 | 4.07 | –
Cc1ccc(C2=Nn3c(COc4ccc(Cl)cc4)nnc3SC2CC(=O)O)cc1 (stereo not shown) [Z90276194] | 1.00 | – | – | RGS14 pIC50 [1, 4]: 4.21; RGS12 pIC50 [2]: 4.21
O=C(O)C[C@@H]1Sc2nnc(-c3ccco3)n2N=C1c1ccccc1 [Z90276389] | 1.00 | 79.4 | 83.2 | –
COc1ccc(-c2nnc3n2N=C(c2ccc(NC(C)=O)cc2)[C@@H](C)S3)cc1OC [Z90277200] | 0.96 | 30.2 | 18.6 | –
O=C(O)C[C@@H]1Sc2nnc(CCC3CCCCC3)n2N=C1c1ccccc1 [Z90277285] | 0.96 | 38 | 24 | –
O=C(O)CC1Sc2nnc(C3CC3)n2N=C1c1ccccc1 (stereo not shown) [Z90274597] | 0.92 | 302 | 151 | –
COc1cccc(C2=Nn3c(COc4ccc(Cl)cc4)nnc3SC2)c1 [Z55660496] | 0.85 | 191 | 42.7 | –
O=C(O)CC1Sc2nnc(C3COc4ccccc4O3)n2N=C1c1cccs1 (stereo not shown) [Z90275816] | 1.08 | 20.4 | 44.7 | –
COc1ccc(Cc2nnc3n2N=C(c2ccc(C)c(C)c2)[C@@H](C)S3)cc1OC [Z55660805] | 0.91 | 75.9 | 29.5 | –
CSc1nnc2n1N=C(c1ccc(NC(=O)C(C)C)cc1)[C@H](C)S2 [Z90277842] | 0.94 | 107 | 61.7 | –
CCn1c(SC(C)C(=O)c2ccc3c(c2)CCC3)nc2cc(S(N)(=O)=O)ccc21 (stereo not shown) [Z51418316] | – | > 1000 | – | –
COc1ccc2nc(SC(C)C(=O)c3ccc(C(C)(C)C)cc3)[nH]c2c1 (stereo not shown) [Z16077565] | – | > 1000 | – | –
COc1ccc2nc(SC(C(=O)OC(C)(C)C)C(C)C)[nH]c2c1 (stereo not shown) [Z5032180761] | – | > 1000 | – | –
O=C(O)CC1Sc2nnc(C3CC3)n2N=C1c1ccc(F)cc1 (stereo not shown) [Z90274599] | 0.92 | 91.2 | 41.7 | –
